Assay results taken from patent US20220274980A1, “PHARMACOLOGICAL INHIBITORS OF THE ENL YEATS DOMAIN” (priority 2019, published 2022).

How the values were obtained:
[1] = biological target: T1, ENL YEATS domain (association with H3K27cr) (Homo sapiens, UniProt Q03111); assay: biochemical; settings: ENL (YEATS)-H3K27cr HTRF (IC50, μM)
T1 sequence (Q03111 1-148): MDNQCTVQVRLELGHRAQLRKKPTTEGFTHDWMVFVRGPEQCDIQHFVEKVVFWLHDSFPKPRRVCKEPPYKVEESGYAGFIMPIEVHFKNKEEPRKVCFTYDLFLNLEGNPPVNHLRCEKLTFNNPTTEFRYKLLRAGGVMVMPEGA

[2] = biological target: T2, ENL protein (Homo sapiens, UniProt Q03111); assay: ENL immunoblot CETSA on endogenous ENL in OCI/AML-2 cells; type: cell-based; settings: 10 μM
T2 construct: performed on endogenous ENL protein by treating wild-type OCI-AML-2 cells with drug; endogenous in cells; host or cells: OCI/AML-2
T2 sequence (Q03111 1-559): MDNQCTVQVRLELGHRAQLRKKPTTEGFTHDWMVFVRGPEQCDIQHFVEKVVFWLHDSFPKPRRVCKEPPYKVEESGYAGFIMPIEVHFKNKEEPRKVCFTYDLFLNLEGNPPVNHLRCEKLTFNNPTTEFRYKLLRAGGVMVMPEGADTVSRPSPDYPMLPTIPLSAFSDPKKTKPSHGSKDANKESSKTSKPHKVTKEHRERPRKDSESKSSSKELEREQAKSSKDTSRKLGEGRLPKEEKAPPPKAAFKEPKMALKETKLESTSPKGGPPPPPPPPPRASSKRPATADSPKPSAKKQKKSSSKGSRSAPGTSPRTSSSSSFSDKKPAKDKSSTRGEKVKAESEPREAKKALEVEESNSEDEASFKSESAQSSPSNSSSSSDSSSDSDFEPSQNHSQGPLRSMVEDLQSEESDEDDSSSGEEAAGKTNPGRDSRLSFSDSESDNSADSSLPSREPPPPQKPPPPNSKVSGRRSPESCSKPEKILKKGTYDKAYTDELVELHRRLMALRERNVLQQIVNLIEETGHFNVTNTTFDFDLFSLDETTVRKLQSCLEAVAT
Protocol: Cellular thermal shift assay (CETSA). […] Briefly, cells were treated with drug, washed with PBS, heated to various temperatures in a thermocycler, cooled to room temperature, lysed by three rounds of freeze-thaw, and then clarified lystaes were subjected to immunoblot analysis.

[3] = test system: MV4; 11 cells; assay: MV4;11 proliferation assay (total viable cell count); type: cell-based; settings: listed as Compound of Formula 69
Protocol: Proliferation assay. MV4; 11 cells were seeded at 20,000 cells/well in 96-well plates and treated with vehicle or drug, counted and reseeded at 20,000 cells/well every 3-4 days with freshly added vehicle or drug.

[4] = biological target: T3, ENL(YEATS)-HiBiT (Homo sapiens, UniProt Q03111); assay: cell-based
T3 sequence (Q03111 1-138 limits assumed): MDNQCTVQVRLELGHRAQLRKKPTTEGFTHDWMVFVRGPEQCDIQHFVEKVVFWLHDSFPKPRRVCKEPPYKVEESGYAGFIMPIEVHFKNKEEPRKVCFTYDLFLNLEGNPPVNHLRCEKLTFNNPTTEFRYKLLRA
Protocol: Cellular thermal shift assay (CETSA). […] Cells were transferred to 384-well (20,000 cells per well in 20 μL) or 1,536-well (3,000 cells per well in 4 μL) plates and drug was transferred using a 100 nL pin tool for 384-well plates or acoustic transfer (Labcyte, Echo Liquid Handler) for 1,536-well plates. Luminescent detection of HiBiT was performed by combining an equal volume of Nano-Glo HiBiT Lytic Reagent (Promega, HiBiT Lytic Detection System, Cat. No. N3040) in each well. […] Briefly, cells were treated with drug, washed with PBS, heated to various temperatures in a thermocycler, cooled to room temperature, lysed by three rounds of freeze-thaw, and then clarified lystaes were subjected to immunoblot analysis.

[5] = Half-life in mouse liver microsomes; type: in vitro ADME
[6] = Half-life in human liver microsomes; type: in vitro ADME
[7] = read-out: t1/2 (min) mouse liver microsomes
[8] = without NADPH, read-out: t1/2 mouse (min liver microsomes (without NADPH))
[9] = read-out: t1/2 (min) human liver microsomes

IC50 ([1]; Table 1) [µM] | IC50 ([1]; Table 2) [µM] | IC50 [4] [nM] | half-life [5, 7] [min] | half-life [5, 8] [min] | half-life [6, 9] [min] | half-life ([6]; without NADPH, read-out: t1/2 (min) human liver microsomes (without NADPH)) [min] | SMILES | stabilization of ENL protein, immunoblot analysis of CETSA [2] | inhibition of MV4:11 proliferation, total viable cell count [3]
0.062 | 0.062 | 297 | 2.29 | 405 | – | – | CC1(C)CCN(CCNS(=O)(=O)Nc2cccc(-c3cn4cc(C(=O)NC5CCC5)ccc4n3)c2)CC1 [Compound 101] | – | –
0.478 | 0.478 | 536 | 34.1 | 138 | – | – | O=C(CCN1CCCCC1)Nc1cccc(-c2cn3cc(C(=O)NC4CCC4)ccc3n2)c1 [Compound 102] | – | –
0.696 | 0.696 | 2200 | 13.1 | 16.1 | – | – | O=C(CCCCN1CCCCC1)Nc1cccc(-c2cn3cc(C(=O)NC4CCC4)ccc3n2)c1 [Compound 103] | – | –
0.134 | 0.134 | 1030 | 14.5 | – | – | – | O=C(NC1CCC1)c1ccc2nc(-c3cccc(NS(=O)(=O)CCCN4CCCCC4)c3)cn2c1 [Compound 104] | – | –
0.84 | 0.84 | 3240 | 9.7 | – | – | – | O=C(NC1CCC1)c1ccc2nc(-c3cccc(S(=O)(=O)NCCCN4CCCCC4)c3)cn2c1 [Compound 105] | – | –
0.027 | 0.027 | 1240 | 7.83 | – | – | – | O=C(NC1CCC1)c1ccc2nc(-c3cccc(NS(=O)(=O)CCN4CCCCC4)c3)cn2c1 [Compound 106] | – | –
0.635 | 0.635 | 2020 | 6.15 | – | – | – | O=C(NC1CCC1)c1ccc2nc(-c3cccc(S(=O)(=O)NCCN4CCCCC4)c3)cn2c1 [Compound 107] | – | –
0.124 | 0.124 | 630 | 28 | – | 23.8 | 537 | O=C(NCCN1CCCCC1)c1cccc(-c2cn3cc(C(=O)NC4CCC4)ccc3n2)c1 [Compound 108] | – | –
0.265 | 0.265 | 8130 | 3.46 | – | – | – | O=C(CCN1CCCCC1=O)Nc1cccc(-c2cn3cc(C(=O)NC4CCC4)ccc3n2)c1 [Compound 109] | – | –
0.306 | 0.306 | 5010 | 19.9 | – | – | – | O=C(CCN1CCOCC1)Nc1cccc(-c2cn3cc(C(=O)NC4CCC4)ccc3n2)c1 [Compound 110] | – | –
0.172 | 0.172 | 1070 | 6.16 | – | – | – | O=C(CN1CCCCC1)Nc1cccc(-c2cn3cc(C(=O)NC4CCC4)ccc3n2)c1 [Compound 112] | – | –
0.153 | 0.153 | 2630 | 85.9 | – | 104 | – | O=C(NCCN1CCCCC1)Nc1cccc(-c2cn3cc(C(=O)NC4CCC4)ccc3n2)c1 [Compound 113] | – | –
0.261 | 0.261 | 4500 | 323 | – | 2960 | – | O=C(CCN1CCNCC1)Nc1cccc(-c2cn3cc(C(=O)NC4CCC4)ccc3n2)c1 [Compound 114] | – | –

SMILES | IC50 ([1]; Table 1) [µM] | IC50 ([1]; Table 2) [µM] | IC50 [4] [nM] | half-life [5, 7] [min] | half-life [5, 8] [min] | half-life [6, 9] [min] | half-life ([6]; without NADPH, read-out: t1/2 (min) human liver microsomes (without NADPH)) [min] | stabilization of ENL protein, immunoblot analysis of CETSA [2] | inhibition of MV4:11 proliferation, total viable cell count [3]
O=C(NC1CCC1)c1ccc2nc(-c3cccc(NS(=O)(=O)NCCc4c[nH]cn4)c3)cn2c1 [Compound 69, 2-(3-((N-(2-(1H-imidazol-4-yl)ethyl)sulfamoyl)amino)phenyl)-N-cyclobutylimidazo[1,2-a]pyridine-6-carboxamide] | 0.1 | 0.1 | 8400 | – | – | – | – | stabilization of ENL protein | Inhibition of MV4:11 proliferations
